The record followed here is patent US8030354B2, “Substituted biphenyl GPR40 modulators” (Amgen Inc., priority 2007, dated 2011).

pEC50: −log10 of the molar value. Where only a bound is given, the exact number is not on record here.

Experiment [1] addresses T1, GPR40 (Homo sapiens, UniProt O14842). As to the kind of experiment: Cell-based aequorin assay (CHO cells stably expressing GPR40 and aequorin). The following applies: activation of human GPR40, CHO cells, 0.01% HSA. Set-up: expressed in transfected cells; host or cells: CHO cells stably transfected with GPR40 and aequorin. The procedure, abridged:
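CHO cells stably co-expressing GPR40 and aequorin, loaded with coelenterazine (1 ug/mL, 2 h, room temperature) in H/HBSS with 20 mM Hepes and 0.01% fatty acid-free HSA. Serially diluted compounds added; luminescence recorded over 20 s. EC50 from dose-response of maximum relative light units.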

Experiment [2] concerns the target T1, GPR40. Put plainly: Inositol phosphate accumulation assay (A9_GPR40 cells). Set-up: expressed in transfected cells; host or cells: CHO cells stably transfected with GPR40 and aequorin. The following applies: inositol phosphate assay, A9_GPR40 cells, 1 hour; read-out: IP3 EC50. The experiment is classed as cell-based. Put shortly:
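A9 cells stably expressing GPR40 were labelled 16 h with 1 μCi/mL ^3H-inositol in inositol-free DMEM with dialysed FBS. Compounds in HBSS/10 mM LiCl with HSA were applied for 1 h at 37° C, then quenched with 20 mM formic acid. Accumulated [^3H] inositol phosphates were counted by SPA.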

As a reminder, the pEC50 is −log10 of the EC50, conventionally taken in molar units.

T1 sequence (O14842 whole entry): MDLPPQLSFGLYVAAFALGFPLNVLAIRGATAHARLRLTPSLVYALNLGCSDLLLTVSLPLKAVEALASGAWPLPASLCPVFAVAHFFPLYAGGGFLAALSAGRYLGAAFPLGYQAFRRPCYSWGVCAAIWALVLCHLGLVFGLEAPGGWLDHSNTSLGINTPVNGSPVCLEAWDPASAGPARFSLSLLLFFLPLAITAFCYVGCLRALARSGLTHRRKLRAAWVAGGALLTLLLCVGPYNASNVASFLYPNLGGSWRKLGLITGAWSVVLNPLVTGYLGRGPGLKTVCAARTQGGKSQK

`COc1ccc(F)c(-c2ccc(COc3cccc(C(CC(=O)O)CC4CC4)c3F)cc2C(F)C(C)(C)C)c1` (single isomer, unassigned) [Example 84.7]: the results for the pEC50 at GPR40 [1] and at GPR40 [2] were 7.00 to 8.00 and over 8.00, respectively.
For the compound `COc1cc(-c2ccc(COc3cccc(C(CC(=O)O)CC4CC4)c3F)cc2C2CCCC2(C)C)c(F)cn1` (single isomer, unassigned) [Example 84.8], the figures for the pEC50 on GPR40 [1] and at GPR40 [2] were 6.00 to 7.00 and over 8.00, respectively.
On the same counts, the results for `COc1cc(-c2ccc(COc3cccc(C(CC(=O)O)CC4CC4)c3F)cc2C(OC)C(C)(C)C)c(F)cn1` (single isomer, unassigned) [Example 84.9] are 6.00 to 7.00 and over 8.00.
On the same counts, the results for `COc1ccc(F)c(-c2ccc(COc3cccc(C(C)(C)CC(=O)O)c3)cc2C2CCCC2(C)C)c1` (single isomer, unassigned) [Example 85.3, 3-(3-(((2-((1R)-2,2-Dimethylcyclopentyl)-2′-fluoro-5′-(methyloxy)-1,1′-biphenyl-4-yl)methyl)oxy)phenyl)-3-methylbutanoic acid or 3-(3-(((2-((1S)-2,2-dimethylcyclopentyl)-2′-fluoro-5′-(methyloxy)-1,1′-biphenyl-4-yl)methyl)oxy)phenyl)-3-methylbutanoic acid] are 6.00 to 7.00 and 7.00 to 8.00.
On to `COc1cc(-c2ccc(COc3cccc(C(C)(C)CC(=O)O)c3)cc2C2CCCC2(C)C)c(F)cn1` (single isomer, unassigned) [Example 85.4, 3-{3-[3-((S)-2,2-Dimethyl-cyclopentyl)-4-(5-fluoro-2-methoxy-pyridin-4-yl)-benzyloxy]-phenyl}-3-methyl-butyric acid or 3-{3-[3-((R)-2,2-dimethyl-cyclopentyl)-4-(5-fluoro-2-methoxy-pyridin-4-yl)-benzyloxy]-phenyl}-3-methyl-butyric acid], for which the pEC50 is 6.00 to 7.00 at GPR40 [1] and 7.00 to 8.00 at GPR40 [2].
`COc1cc(-c2cc(F)c(COc3cccc(C(C)(C)CC(=O)O)c3)cc2C2CCCC2(C)C)c(F)cn1` (single isomer, unassigned) [Example 85.5, 3-(3-(((5-((1S)-2,2-Dimethylcyclopentyl)-2-fluoro-4-(5-fluoro-2-(methyloxy)-4-pyridinyl)phenyl)methyl)oxy)phenyl)-3-methylbutanoic acid or 3-(3-(((5-((1R)-2,2-dimethylcyclopentyl)-2-fluoro-4-(5-fluoro-2-(methyloxy)-4-pyridinyl)phenyl)methyl)oxy)phenyl)-3-methylbutanoic acid]: the figures for the pEC50 at GPR40 [1] and on GPR40 [2] were 6.00 to 7.00 and 7.00 to 8.00, respectively.
As to `COc1cc(-c2ccc(COc3cccc(C(C)(C)CC(=O)O)c3)cc2C(OC)C(C)(C)C)c(F)cn1` (single isomer, unassigned) [Example 85.6, 3-(3-(((3-((1S)-2,2-Dimethyl-1-(methyloxy)propyl)-4-(5-fluoro-2-(methyloxy)-4-pyridinyl)phenyl)methyl)oxy)phenyl)-3-methylbutanoic acid or 3-(3-(((3-((1R)-2,2-dimethyl-1-(methyloxy)propyl)-4-(5-fluoro-2-(methyloxy)-4-pyridinyl)phenyl)methyl)oxy)phenyl)-3-methylbutanoic acid], the values for the pEC50 on GPR40 [1] and on GPR40 [2] were 6.00 to 7.00 and 7.00 to 8.00, respectively.
Turning to `CCC(CC(=O)O)c1ccc(F)c(OCc2ccc(-c3cc(OC)ccc3F)c(C3=CCCC3(C)C)c2)c1` (single isomer, unassigned) [Example 86.1, (3R)-3-(3-(((2-(5,5-Dimethyl-1-cyclopenten-1-yl)-2′-fluoro-5′-(methyloxy)-1,1′-biphenyl-4-yl)methyl)oxy)-4-fluorophenyl)pentanoic acid or (3S)-3-(3-(((2-(5,5-dimethyl-1-cyclopenten-1-yl)-2′-fluoro-5′-(methyloxy)-1,1′-biphenyl-4-yl)methyl)oxy)-4-fluorophenyl)pentanoic acid], the pEC50 on GPR40 [1] and at GPR40 [2] was 6.00 to 7.00 in each case.
For `CC[C@H](CC(=O)O)c1ccc(C)c(OCc2ccc(-c3cc(OC)ccc3F)c(C(C)(C)C)c2)c1` (single isomer, unassigned) [Example 87], the pEC50 on GPR40 [1] and on GPR40 [2] was 6.00 to 7.00 throughout.
Regarding `CCC(CC(=O)O)c1cc(F)cc(OCc2ccc(-c3cc(OC)ccc3F)c(C3CCCC3(C)C)c2)c1` (single isomer, unassigned) [Example 88.1], the pEC50 on GPR40 [1] is 7.00 to 8.00; on GPR40 [2], over 8.00.
As for `CCC(CC(=O)O)c1cc(F)cc(OCc2ccc(-c3cc(OC)ccc3F)c(C3=CCCC3(C)C)c2)c1` (single isomer, unassigned) [Example 88.2, (3R)-3-(3-(((2-(5,5-Dimethyl-1-cyclopenten-1-yl)-2′-fluoro-5′-(methyloxy)-1,1′-biphenyl-4-yl)methyl)oxy)-5-fluorophenyl)pentanoic acid or (3S)-3-(3-(((2-(5,5-dimethyl-1-cyclopenten-1-yl)-2′-fluoro-5′-(methyloxy)-1,1′-biphenyl-4-yl)methyl)oxy)-5-fluorophenyl)pentanoic acid], the values for the pEC50 on GPR40 [1] and at GPR40 [2] were 6.00 to 7.00 and 7.00 to 8.00, respectively.
As for `CCC(CC(=O)O)c1cc(F)cc(OCc2cc(C3CCCC3(C)C)c(-c3cc(OC)ccc3F)cc2F)c1` (single isomer, unassigned) [Example 88.3], the pEC50 was 6.00 to 7.00 at GPR40 [1] and over 8.00 on GPR40 [2].
Turning to `CCC(CC(=O)O)c1cc(F)cc(OCc2ccc(-c3cc(OC)ncc3F)c(C3CCCC3(C)C)c2)c1` (single isomer, unassigned) [Example 88.4], the results for the pEC50 at GPR40 [1] and on GPR40 [2] were 6.00 to 7.00 and over 8.00, respectively.
Take `COc1ccc(F)c(-c2ccc(COc3cc(F)cc(C(CC(=O)O)CC4CC4)c3)cc2C2CCCC2(C)C)c1` (single isomer, unassigned) [Example 89.1]: the values for the negative logarithm of the EC50 (pEC50) on GPR40 [1] and on GPR40 [2] were 7.00 to 8.00 and over 8.00, respectively.
In the case of `COc1ccc(F)c(-c2ccc(COc3cc(F)cc(C(CC(=O)O)CC4CC4)c3)cc2C2=CCCC2(C)C)c1` (single isomer, unassigned) [Example 89.2, (3R)-4-Cyclopropyl-3-(3-(((2-(5,5-dimethyl-1-cyclopenten-1-yl)-2′-fluoro-5′-(methyloxy)-1,1′-biphenyl-4-yl)methyl)oxy)-5-fluorophenyl)butanoic acid or (3S)-4-cyclopropyl-3-(3-(((2-(5,5-dimethyl-1-cyclopenten-1-yl)-2′-fluoro-5′-(methyloxy)-1,1′-biphenyl-4-yl)methyl)oxy)-5-fluorophenyl)butanoic acid], the pEC50 was 6.00 to 7.00 on GPR40 [1] and 7.00 to 8.00 on GPR40 [2].
As for `COc1ccc(F)c(-c2cc(F)c(COc3cc(F)cc(C(CC(=O)O)CC4CC4)c3)cc2C2CCCC2(C)C)c1` (single isomer, unassigned) [Example 89.3], the pEC50 is 6.00 to 7.00 at GPR40 [1] and over 8.00 at GPR40 [2].
As for `COc1cc(-c2ccc(COc3cc(F)cc(C(CC(=O)O)CC4CC4)c3)cc2C2CCCC2(C)C)c(F)cn1` (single isomer, unassigned) [Example 89.4], the pEC50 on GPR40 [1] is 6.00 to 7.00; at GPR40 [2], over 8.00.
Turning to `CCC(CC(=O)O)c1cc(F)cc(OCc2ccc(-c3cc(OC)ccc3F)c(C3=CCCC3(C)C)c2)c1F` (single isomer, unassigned) [Example 90.1, (3R)-3-(3-(((2-(5,5-Dimethyl-1-cyclopenten-1-yl)-2′-fluoro-5′-(methyloxy)-1,1′-biphenyl-4-yl)methyl)oxy)-2,5-difluorophenyl)pentanoic acid or (3S)-3-(3-(((2-(5,5-dimethyl-1-cyclopenten-1-yl)-2′-fluoro-5′-(methyloxy)-1,1′-biphenyl-4-yl)methyl)oxy)-2,5-difluorophenyl)pentanoic acid], the figures for the pEC50 on GPR40 [1] and at GPR40 [2] were 6.00 to 7.00 and 7.00 to 8.00, respectively.
Take `CCC(CC(=O)O)c1cc(F)cc(OCc2ccc(-c3cc(OC)ccc3F)c(C3CCCC3(C)C)c2)c1F` (single isomer, unassigned) [Example 90.2]: the pEC50 is 6.00 to 7.00 on GPR40 [1] and over 8.00 at GPR40 [2].
Taken in the same sequence, the figures for `CCC(CC(=O)O)c1cc(F)cc(OCc2ccc(-c3cc(OC)ncc3F)c(C3CCCC3(C)C)c2)c1F` (single isomer, unassigned) [Example 90.3] were 6.00 to 7.00 and over 8.00.
Take `CCC(CC(=O)O)c1cc(OCc2ccc(-c3cc(OC)ccc3F)c(C3=CCCC3(C)C)c2)cc(C(F)(F)F)c1` (single isomer, unassigned) [Example 91, (3R)-3-(3-(((2-(5,5-Dimethyl-1-cyclopenten-1-yl)-2′-fluoro-5′-(methyloxy)-1,1′-biphenyl-4-yl)methyl)oxy)-5-(trifluoromethyl)phenyl)pentanoic acid or (3S)-3-(3-(((2-(5,5-dimethyl-1-cyclopenten-1-yl)-2′-fluoro-5′-(methyloxy)-1,1′-biphenyl-4-yl)methyl)oxy)-5-(trifluoromethyl)phenyl)pentanoic acid]: the pEC50 is 6.00 to 7.00 at GPR40 [1] and 7.00 to 8.00 on GPR40 [2].
For the compound `COc1ccc(F)c(-c2ccc(COc3cccc([C@@H](CC(=O)O)[C@@H]4C[C@H]4C)c3)cc2C(C)(C)C)c1` (single isomer, unassigned) [Example 93.1], the results for the pEC50 on GPR40 [1] and on GPR40 [2] were 6.00 to 7.00 and 7.00 to 8.00, respectively.
Take `COc1ccc(F)c(-c2ccc(COc3cccc([C@@H](CC(=O)O)[C@@H]4C[C@H]4C)c3)cc2C2=CCCC2(C)C)c1` (single isomer, unassigned) [Example 93.2]: the negative-log EC50 (pEC50) is 6.00 to 7.00 on GPR40 [1] and 7.00 to 8.00 on GPR40 [2].
